Laboratory results from ChEMBL document CHEMBL4346666, “Synthesis, mitochondrial localization of fluorescent derivatives of cinnamamide as anticancer agents” (Eur J Med Chem, 2019).

What was measured:
HL-60 [1] = assay: Cytotoxicity against human HL60 cells assessed as cell viability at 20 uM measured after 48 hrs by MTT assay relative to control; format: functional; conditions: HL-60, 48 h, read-out: Activity
HeLa = assay: Cytotoxicity against human HeLa cells assessed as cell viability at 20 uM measured after 48 hrs by MTT assay relative to control; format: functional; conditions: read-out: Activity
HepG2 = assay: Cytotoxicity against human HepG2 cells assessed as cell viability at 20 uM measured after 48 hrs by MTT assay relative to control; format: functional; conditions: HepG2, 48 h, read-out: Activity
MCF7 = assay: Cytotoxicity against human MCF7 cells assessed as cell viability at 20 uM measured after 48 hrs by MTT assay relative to control; format: functional; conditions: MCF7, 48 h, read-out: Activity
HL-60 [2] = assay: Cytotoxicity against human HL60 cells assessed as reduction in cell viability measured after 48 hrs by MTT assay; format: functional, cell-based; conditions: HL-60, 48 h

SMILES | viability at 20 µM (HL-60 [1]) [%] | viability at 20 µM (HeLa) [%] | viability at 20 µM (HepG2) [%] | viability at 20 µM (MCF7) [%] | IC50 (HL-60 [2]) [µM]
CCN(CC)c1ccc2cc(C(=O)N3CCN(C(=O)/C=C/c4cc(OC)c(OC)cc4OC)CC3)c(=O)oc2c1 | 80.1 | 84.6 | 99.6 | 91.6 | 
CCN(CC)c1ccc2cc(C(=O)NCCCCCCNC(=O)/C(=C/c3cc(OC)c(OC)c(OC)c3)c3ccc(OC)cc3)c(=O)oc2c1 | 82.5 | 100 | 100 | 100 | 
CCN(CC)c1ccc2cc(C(=O)N3CCN(C(=O)/C(=C/c4cc(OC)c(OC)c(OC)c4)c4ccc(OC)c(OC)c4)CC3)c(=O)oc2c1 | 80.3 | 97.8 | 82.1 | 100 | 
CCN(CC)c1ccc2cc(C(=O)N3CCN(C(=O)/C=C/c4ccc(OC)cc4)CC3)c(=O)oc2c1 | 85.6 | 81.6 | 98.9 | 98.1 | 
CCN(CC)c1ccc2cc(C(=O)NCCNC(=O)CCc3cc(OC)c(OC)c(OC)c3)c(=O)oc2c1 | 80.4 | 67.4 | 66.8 | 78.2 | > 25
CCN(CC)c1ccc2cc(C(=O)NCCCCCCNC(=O)/C=C/c3ccc(OC)cc3)c(=O)oc2c1 | 99.8 | 100 | 76.6 | 87.8 | 
CCN(CC)c1ccc2cc(C(=O)NCCNC(=O)/C=C/c3ccc(OC)cc3)c(=O)oc2c1 | 78.5 | 71.8 | 68.8 | 80.7 | > 25
CCN(CC)c1ccc2cc(C(=O)NCCCCCCNC(=O)/C=C/c3cc(OC)c(OC)c(OC)c3)c(=O)oc2c1 | 43.5 | 72.2 | 100 | 91 | 
CCN(CC)c1ccc2cc(C(=O)N3CCN(C(=O)/C=C/c4cc(OC)c(OC)c(OC)c4)CC3)c(=O)oc2c1 | 74.5 | 82.6 | 97.2 | 100 | 
CCN(CC)c1ccc2cc(C(=O)NCCCCNC(=O)/C(=C/c3cc(OC)c(OC)c(OC)c3)c3ccc(OC)cc3)c(=O)oc2c1 | 51.3 | 75 | 100 | 84.9 | 
CCN(CC)c1ccc2cc(C(=O)NCCNC(=O)/C(=C/c3cc(OC)c(OC)c(OC)c3)c3ccc(F)cc3)c(=O)oc2c1 | 68.3 | 84.7 | 96 | 75.3 | 18.8
CCN(CC)c1ccc2cc(C(=O)NCCNC(=O)/C=C/c3cc(OC)c(OC)c(OC)c3)c(=O)oc2c1 | 45.5 | 61.4 | 72.9 | 72.4 | 23.3
CCN(CC)c1ccc2cc(C(=O)N3CCN(C(=O)/C=C/c4c(OC)cc(OC)cc4OC)CC3)c(=O)oc2c1 | 75.3 | 78.2 | 88.7 | 94 | 
CCN(CC)c1ccc2cc(C(=O)NCCCCNC(=O)/C=C/c3cc(OC)c(OC)c(OC)c3)c(=O)oc2c1 | 56.3 | 74.5 | 93.8 | 93.8 | 
CCN(CC)c1ccc2cc(C(=O)N3CCN(C(=O)/C(=C/c4cc(OC)c(OC)c(OC)c4)c4ccc(OC)cc4)CC3)c(=O)oc2c1 | 74.3 | 100 | 100 | 100 | 
CCN(CC)c1ccc2cc(C(=O)NCCNC(=O)/C(=C/c3cc(OC)c(OC)c(OC)c3)c3ccc(OC)c(F)c3)c(=O)oc2c1 | 67.7 | 99.7 | 100 | 100 | 15
CCN(CC)c1ccc2cc(C(=O)NCCNC(=O)/C(=C/c3cc(OC)c(OC)c(OC)c3)c3ccc(OC)cc3)c(=O)oc2c1 | 29.4 | 75 | 100 | 75.8 | 13.8
CCN(CC)c1ccc2cc(C(=O)NCCNC(=O)/C(=C/c3cc(OC)c(OC)c(OC)c3)c3ccc(C(F)(F)F)cc3)c(=O)oc2c1 | 54.2 | 74 | 98.9 | 79.1 | > 25
CCN(CC)c1ccc2cc(C(=O)NCCNC(=O)/C=C/c3c(OC)cc(OC)cc3OC)c(=O)oc2c1 | 68.9 | 63.9 | 75.4 | 72.1 | > 25
CCN(CC)c1ccc2cc(C(=O)NCCNC(=O)/C=C/c3cc(OC)c(OC)cc3OC)c(=O)oc2c1 | 48.2 | 72.6 | 100 | 76.4 | 22.9
